Assay results taken from PMC9130766 (Frontiers in Pharmacology, 2022).
Entries after “also recorded” stand apart in the source; their conditions may differ. Where two headings read alike, the source gives them in different places.

What was measured:
E. coli = assay: Cell growth of E. coli (OD 600 nm); type: cell-based, Escherichia coli; conditions: up to a concentration of 296 µM, compared to the control
Method: Escherichia coli was used in the study. All experiments were conducted in Difco™ Nutrient Broth (DNB) medium at 37°C. The E. coli was removed from glycerol stock at −80 C and transferred to the DNB plate. Next, in a 250 ml flask, a fresh single colony was inoculated into DNB (25 ml) medium and cultured at 37 C with 250 rpm for 24 h. Using the SpectraMaxM3 Multi-Mode Microplate Reader cell growth was found in the presence of different concentrations of compounds at optical densities of 600 nm. All experiments were conducted with at least three independent cultures ([Cho et al., 2013]).
Bacterial biofilms are a serious health concern owing to their abilities to tolerate antibiotics, host defense systems, and other external stresses ([Sharma et al., 2019]). It is generally accepted that neuraminidase participates in biofilm production together with quorum sensing. […] The crystal violet staining method was used for the detection of biofilm production. To investigate biofilm inhibition, E. coli was cultured overnight with or without inhibitor 1 in a 96-well plate.

E. coli biofilm = assay: Antibiofilm assay (crystal violet staining); type: cell-based; conditions: Escherichia coli, 24 h, 37°C, read-out: concentration giving 50% inhibition of E. coli biofilm production
Method: A 96-well microtiter plate (polystyrene) was used to measure the anti-biofilm activity as described previously ([Mohanta et al., 2020]). First, 180 μl of DNB and 10 μl of the test pathogens (OD = 1.0, 600 nm) were added to individual wells. Then, 10 μl solutions of ugonin J with different concentrations was added to each well and the contents of each well were mixed thoroughly. The prepared plate was then incubated for 24 h in a static condition at 37°C. After incubation, the supernatant in the wells in the plate was discarded and the residue washed with phosphate buffered saline (pH 7.2) to remove the free-floating non-adherent cells from the wells in the plate. The plate was then air-dried for about 45 min before the bacteria in the wells were fixed with 2% (w/v) sodium acetate. This was followed by flooding the wells with crystal violet stain (0.1%, w/v) and incubation in the dark for 30 min. After this, the wells in the plate were washed with sterile deionized water to remove all dye and allowed to dry. After drying, each well in the plate was filled with 200 μl of ethanol (95%, v/v) and the absorbance of this solution was measured at 620 nm using the SpectraMax M3 Multi-Mode Microplate Reader. All assays were conducted in triplicate and the mean ± standard deviation was calculated. […]

[1] = biological target: T1, bacterial neuraminidase (BNA) (Clostridium perfringens, UniProt P10481); assay: biochemical; type: binding, C. perfrigens
[2] = biological target: T1, bacterial neuraminidase (BNA); type: biochemical, C. perfrigens
[3] = biological target: T1, bacterial neuraminidase (BNA); assay: biochemical; type: biochemical, C. perfrigens
[4] = biological target: T1, bacterial neuraminidase (BNA); assay: biochemical; type: biochemical, C. perfrigens; remark: listed apart in the source
[5] = pH 5.0, read-out: IC50, inhibition of bacterial neuraminidase (BNA)
[6] = IC50, inhibition of bacterial neuraminidase (BNA)

T1 sequence (P10481 whole entry, looked up): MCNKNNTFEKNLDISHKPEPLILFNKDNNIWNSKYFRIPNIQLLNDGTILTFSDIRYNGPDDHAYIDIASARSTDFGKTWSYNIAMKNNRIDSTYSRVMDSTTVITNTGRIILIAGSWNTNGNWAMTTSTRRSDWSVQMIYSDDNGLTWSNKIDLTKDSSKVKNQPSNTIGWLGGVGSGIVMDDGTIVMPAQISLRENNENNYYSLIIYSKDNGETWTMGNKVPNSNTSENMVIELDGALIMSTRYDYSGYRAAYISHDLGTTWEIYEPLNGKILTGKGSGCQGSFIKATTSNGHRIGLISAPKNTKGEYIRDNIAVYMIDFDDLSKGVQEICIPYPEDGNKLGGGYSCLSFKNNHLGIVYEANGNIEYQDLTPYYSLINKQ

| SMILES | growth inhibition of E. coli (E. coli) | IC50 (E. coli biofilm) | K SV (Stern-Volmer quenching constant) [1] | Kd [1] | fluorescence (FS) reduction of BNA [1] | n (number of binding sites) [1] | k 5 [2] | k 6 [2] | Kinetic mode [3] | reversibility of BNA inhibition [3] | IC50 [4, 5] | Ki [3] | fold greater BNA inhibitive ability than parent (mother) compound [4] | IC50 [4, 6] |
| --- | --- | --- | --- | --- | --- | --- | --- | --- | --- | --- | --- | --- | --- | --- |
| C=C1CCCC(C)(C)[C@@H]1Cc1c(O)cc2oc(-c3ccc(O)c(O)c3)cc(=O)c2c1O [Compound 1, ugonin J] | no growth inhibition | 18000 nM | 4.77e+06 L/mol | 282 nM | complete FS reduction | 1.30 | 0.0103 min⁻¹ | 0.0486 min⁻¹ | noncompetitive inhibitor; also recorded: Noncompetitive (0.05) | reversible inhibitor | 50 nM |  |  |  |
| C=C1CCCC(C)(C)C1Cc1c(O)cc2c(c1O)C(=O)CC(c1ccc(O)c(O)c1)O2 (centres unmarked) [Compound 2, 2-(3,4-dihydroxyphenyl)-6-[(2,2-dimethyl-6 methylenecyclohexyl)methyl]-5,7-dihydroxy-chroman-4-one] |  |  | 2.53e+06 L/mol | 746 nM |  | 1.01 |  |  | Noncompetitive (0.06) |  | 70 nM | 60 nM | 250 fold |  |
| CC1=CCCC(C)(C)C1Cc1c(O)c(O)cc2oc3c(=O)c4c(O)cc(O)cc4oc3c12 (centres unmarked) [Compound 4, ugonin M] |  |  | 810000 L/mol | 1180 nM |  | 1.13 |  |  | Noncompetitive (0.12) |  | 150 nM | 120 nM |  |  |
| CC1(C)CCC[C@@]2(C)Oc3c(c(O)cc4oc(-c5ccc(O)c(O)c5)cc(=O)c34)C[C@@H]12 [Compound 5, ugonin S] |  |  | 70000 L/mol | 16700 nM |  | 1.24 |  |  | Noncompetitive (0.25) |  | 280 nM | 250 nM |  | 140 nM |
| CC1(C)CCCC2(C)Oc3cc4oc(-c5ccc(O)c(O)c5)cc(=O)c4c(O)c3CC12 (centres unmarked) [Compound 6, ugonin U] |  |  | 50000 L/mol | 33300 nM |  | 1.44 |  |  | Noncompetitive (0.29) |  | 350 nM | 290 nM |  |  |
| O=C1C[C@@H](c2ccc(O)c(O)c2)Oc2cc(O)cc(O)c21 [Eriodictyol, reference compound] |  |  |  |  |  |  |  |  |  |  | 17800 nM |  |  |  |
| O=c1cc(-c2ccc(O)c(O)c2)oc2cc(O)cc(O)c12 [Luteolin, reference compound] |  |  |  |  | did not undergo FS reduction |  |  |  |  |  | 4400 nM |  |  |  |
| O=c1c(O)c(-c2ccc(O)c(O)c2)oc2cc(O)cc(O)c12 [Quercetin, reference compound] |  |  |  |  |  |  |  |  |  |  |  |  |  | 20400 nM |
